Where a name gives a salt, the structure may show the parent alone.
Tested on: Phospho-EGFR in H1975 cell line
Assay: HTRF Phospo EGFR Assay (Cellular)
Format: cell-based
Details: Homo sapiens, NCI-H1975; H1975 cells, 6 hours compound incubation in starving medium, HTRF phospho-EGFR readout
Experimental: HTRF Phospo EGFR Assay (Cellular)
H1975 cell line was obtained from American Type Culture Collection (Manassas, Va., USA). Cells were maintained at 37° C., 5% CO2 in complete Media RPMI 1640 without phenol red containing 0.3 mg/ml glutamine, 100 IU/ml penicillin, and […] (Gibco) supplemented with 10% fetal bovine serum (FBS) (Gibco). Compounds were diluted into starving medium RPMI 1640 Media without phenol red containing 0.3 mg/ml glutamine, 100 IU/ml penicillin, and […] (Gibco).
Cells were cultured overnight in a 384-well white plate (8000 cells/well) using 8 μl of complete medium/well. Cells were washed two times with 20 μl of starving medium. Media was removed by tapping plates on tissue and subsequently 8 μl of fresh starving medium/well was added. Then 4 μl/well of the 3× compound solution, containing a half-log dilution series of the compound or DMSO in starving medium, were added to the cells. After 6 hours at 37° C., 5% CO2 cells were lysed by adding to the compound mix 4 μl/well of the supplemented lysis buffer, followed by incubation for 30 min at room temperature with shaking. Lysates were stored at −20° C. over night. The following day plates were thawed and 2 μl of anti-Phospho-EGFR Cryptate and 2 μl of anti-Phospho-EGFR-d2 antibody solutions prepared in the detection buffer were added. The plates were then incubated for at least 4 h at room temperature before reading the fluorescence emission at 620 and 665 nm using PHERAstar FX plate reader (BMG Labtech).

| Structure (SMILES) | IC50 |
| --- | --- |
| O=C(Nc1nccs1)C(c1cc(F)ccc1O)n1cc2cccc(Br)c2n1 (racemic) [Example 15, (2RS)-2-(7-Bromoindazol-2-yl)-2-(5-fluoro-2-hydroxy-phenyl)-N-thiazol-2-yl-acetamide] | 1 nM |
| O=C(Nc1nccs1)C(c1cc(F)ccc1O)n1cc2cccc(-c3ccccc3)c2n1 (racemic) [Example 16, (2RS)-2-(5-Fluoro-2-hydroxy-phenyl)-2-(7-phenylindazol-2-yl)-N-thiazol-2-yl-acetamide] | 55 nM |
| Nc1ccc(C#Cc2ccc3cn(C(C(=O)Nc4ccccn4)c4cc(F)ccc4O)nc3c2F)cn1 (racemic) [Example 7, (2RS)-2-[6-[2-(6-Amino-3-pyridyl)ethynyl]-7-fluoro-indazol-2-yl]-2-(5-fluoro-2-hydroxy-phenyl)-N-(2-pyridyl)acetamide] | 7 nM |
| O=C(Nc1ccccn1)C(c1ccccc1)n1cc2ccc(-c3ccc(N4CCNCC4)nc3)c(F)c2n1 (racemic) [Example 9, (2RS)-2-[7-Fluoro-6-(6-piperazin-1-yl-3-pyridyl)indazol-2-yl]-2-phenyl-N-(2-pyridyl)acetamide] | 127 nM |
| O=C(Nc1nccs1)C(c1cccc(F)c1)n1cc2ccc(C#Cc3cccnc3)cc2n1 (racemic) [Example 14, (2RS)-2-(3-Fluorophenyl)-2-[6-[2-(3-pyridyl)ethynyl]indazol-2-yl]-N-thiazol-2-yl-acetamide] | 22 nM |
| O=C(Nc1nccs1)C(c1ccccc1)n1cc2ccc(-c3ccc(N4CCNCC4)nc3)cc2n1 (racemic) [Example 20, (2RS)-2-Phenyl-2-[6-(6-piperazin-1-yl-3-pyridyl)indazol-2-yl]-N-thiazol-2-yl-acetamide hydrochloride] | 39 nM |
| O=C(Nc1nccs1)C(c1ccccc1)n1cc2ccc(-c3ccc(N4CCNCC4)nc3)c(Cl)c2n1 (racemic) [Example 8, (2RS)-2-[7-Chloro-6-(6-piperazin-1-yl-3-pyridyl)indazol-2-yl]-2-phenyl-N-thiazol-2-yl-acetamide] | 32 nM |
| O=C(Nc1ccccn1)C(c1ccccc1)n1cc2ccccc2n1 (racemic) [Example 1, (2RS)-2-Indazol-2-yl-2-phenyl-N-(2-pyridyl)acetamide] | 1760 nM |
| O=C(Nc1nccs1)C(c1ccccc1)n1cc2ccc(-c3ccc(N4CCNCC4)nc3)c(F)c2n1 (racemic) [Example 12, (2RS)-2-[7-Fluoro-6-(6-piperazin-1-yl-3-pyridyl)indazol-2-yl]-2-phenyl-N-thiazol-2-yl-acetamide hydrochloride] | 31 nM |
| O=C(Nc1nccs1)C(c1cc(F)ccc1O)n1cc2cccc(N3CCOCC3)c2n1 (racemic) [Example 17, (2RS)-2-(5-Fluoro-2-hydroxy-phenyl)-2-(7-morpholinoindazol-2-yl)-N-thiazol-2-yl-acetamide] | 60 nM |
| CCN1CCN(c2ccc(-c3ccc4cn(C(C(=O)Nc5nccs5)c5cccc(F)c5)nc4c3)cn2)CC1 (racemic) [Example 13, (2RS)-2-[6-[6-(4-Ethylpiperazin-1-yl)-3-pyridyl]indazol-2-yl]-2-(3-fluorophenyl)-N-thiazol-2-yl-acetamide] | 144 nM |
| Nc1ccc(C#Cc2ccc3cn(C(C(=O)Nc4nccs4)c4ccccc4)nc3c2F)cn1 (racemic) [Example 11, (2RS)-2-[6-[2-(6-Amino-3-pyridyl)ethynyl]-7-fluoro-indazol-2-yl]-2-phenyl-N-thiazol-2-yl-acetamide] | 52 nM |

More lines, now with the values ahead:

| IC50 | Structure (SMILES) |
| --- | --- |
| 33 nM | O=C(Nc1nccs1)C(c1cc(F)ccc1O)n1cc2ccc(-c3ccccc3)cc2n1 (racemic) [Example 19, (2RS)-2-(5-Fluoro-2-hydroxy-phenyl)-2-(6-phenylindazol-2-yl)-N-thiazol-2-yl-acetamide] |
| 499 nM | Nc1ccc2cn(C(C(=O)Nc3nccs3)c3ccccc3)nc2c1 (racemic) [Example 3, (2RS)-2-(6-Aminoindazol-2-yl)-2-phenyl-N-thiazol-2-yl-acetamide] |
| 57 nM | O=C(Nc1nccs1)C(c1cc(F)ccc1O)n1cc2ccccc2n1 (racemic) [Example 6, (2RS)-2-(5-Fluoro-2-hydroxy-phenyl)-2-indazol-2-yl-N-thiazol-2-yl-acetamide] |
| 537 nM | COc1ccc2cn(C(C(=O)Nc3nccs3)c3ccccc3)nc2c1 (racemic) [Example 4, (2RS)-2-(6-Methoxyindazol-2-yl)-2-phenyl-N-thiazol-2-yl-acetamide] |
| 199 nM | O=C(Nc1nccs1)C(c1ccccc1)n1cc2ccc(O)cc2n1 (racemic) [Example 5, (2RS)-2-(6-Hydroxyindazol-2-yl)-2-phenyl-N-thiazol-2-yl-acetamide] |
| 43 nM | O=C(Nc1nccs1)C(c1cc(F)ccc1O)n1cc2ccc(Br)cc2n1 (racemic) [Example 18, (2RS)-2-(6-Bromoindazol-2-yl)-2-(5-fluoro-2-hydroxy-phenyl)-N-thiazol-2-yl-acetamide] |
| 77 nM | O=C(Nc1nccs1)C(c1ccccc1)n1cc2ccccc2n1 (racemic) [Example 2, (2RS)-2-Indazol-2-yl-2-phenyl-N-thiazol-2-yl-acetamide] |
